# Experimental data reported in patent publication US20060263302A1, “Systemic oxygenation via gastric perfusion with perfluorocarbon (PFC)” (Thomas Jefferson University, priority 2005, published 2006).
# Several values for one entry are separate records, joined by “and”; a condition that tells them apart may be missing. Equal entries are not always repeated.
# Key:
# [1] = Properties of perfluorocarbon (physical characteristics of neat F44E); type: physicochemical
# Excerpt: Perfluorocarbon: Seventy liters of neat perfluorocarbon F44E (trans-bis-perfluorobutyl ethylene) were provided as a generous gift from Neuron Therapeutics, Inc (Malvern, Pa.). This perfluorocarbon is clear, colorless, odorless, immiscible with water or blood and has the physical characteristics listed in Table 1.
# [2] = system: Sus scrofa pigs; assay: Peritoneal perfusion with perfluorocarbon in pigs made hypoxic by ventilation with subatmospheric oxygen; arterial blood gases; type: in vivo; conditions: for Fitted mean PaO2 / Observed mean PaO2: pigs, peritoneal perfusion; for Fitted treatment effect: mean PaO2 difference perfluorocarbon versus saline / Observed treatment effect: mean PaO2 difference perfluorocarbon versus saline: oxygenation on
# Experimental: Animals: Fifteen Sus scrofa pigs weighing 45-55 kg were used for the experiments. All experiments were approved by the Thomas Jefferson University Institutional Animal Care and Use Committee. The care and handling of all animals were in accord with United States Department of Agriculture guidelines.
# Surgical procedure: The animals were induced with Telazol (Fort Dodge Animal Health, Fort Dodge, Iowa) 5 mg/kg injected intramuscularly (IM), after which an intravenous catheter was placed in an ear vein and 30 mg of Propofol (Baxter, Irvine, Calif.) was injected intravenously (IV). The animals were then intubated with a 7.5 mm internal diameter endotracheal tube (Mallinckrodt Inc., St. Louis, Mo.) and maintained with isoflurane inhalation anesthesia, using intermittent Propofol injections for any evidence of discomfort or awakening. The animals were placed on a Harvard Apparatus Dual Phase Control Respirator Pump (South Natick, Mass.) mechanical ventilator with a tidal volume of 10-15 ml/kg and a rate of 12-15 breaths per minute. Prior to subjecting the animal to hypoxia, the respiratory rate was occasionally adjusted in an effort to maintain a neutral pH, as determined by arterial blood gas measurements. Electrocardiography leads were placed in the standard 3-lead positions on each animal, starting at the time of induction, and continuously monitored throughout the experiment. Oxygen saturation was also measured with a Vet/Ox Plus 4700 (SDI, Waukesha, Wis.) pulse oxymeter with the probe placed on the animal's tongue. Once under general anesthesia and in the supine position, a cervical cut down was performed through which a Swan-Ganz right heart catheter (Edwards Lifesciences, Irvine, Calif.) was placed via the internal jugular vein and an 18-gauge angiocatheter was placed in the common carotid artery for access to the central arterial system for blood pressure monitoring and arterial blood gas measurements. Both of these lines were transduced using a pressure monitoring kit with a TruWave pressure transducer (Edwards Lifesciences, Irvine, Calif.) and connected to a Hewlett-Packard Monitor 78834A (Palo Alto, Calif.) system for monitoring the systemic and pulmonary arterial pressures and the central venous pressure.
# After placement of the arterial and venous lines, a lower midline laparotomy was performed. A 28 French venous return cannula catheter (Edwards Lifesciences, Irvine, Calif.) was placed in the left paracolic gutter and brought out through a separate site in the left lower quadrant and sutured in place using a number 1 Prolene suture (Ethicon, Sommerville, N.J.). A 42 French venous return cannula (Edwards Lifesciences, Irvine, Calif.) was placed in an identical manner on the right side, with the tip lodged above the dome of the liver. The abdomen was then closed in a single layer with a running number I Prolene. In the first two animals in each experimental group, an additional 14 French catheter (Edwards Lifesciences, Irvine, Calif.) was placed near the midline for pressure monitoring purposes and was maintained in a vertical attitude, attached to a ruler such that the height of the column of fluid could be easily monitored. Peritoneal pressure measurements in centimeters of H2O were calculated by multiplying column height by the correction factor 1.67 (specific gravity of trans-bis-perfluorobutyl ethylene).
# Hypoxia circuit: A Matrx anesthesia machine (Orchard Park, N.Y.) was used for blending gasses and isoflurane inhaled anesthetic. Pure nitrogen, rather than filtered room air, was mixed with pure oxygen to achieve subatmospheric concentrations of oxygen. The animal was ventilated using a standard bifurcated anesthesia circuit to maintain unidirectional flow of gasses. A Datex machine (Puritan-Bennett Corporation, Overland Park, Kans.) was attached to the ventilation circuit and allowed real-time monitoring of the oxygen and anesthetic agent concentration. […]
compound,measurement,setting,value
"FC(F)(F)C(F)(F)C(F)(F)C(F)(F)/C=C/C(F)(F)C(F)(F)C(F)(F)C(F)(F)F [perfluorocarbon, trans-bis-perfluorobutyl ethylene]",specific gravity (correction factor for peritoneal pressure),[1],1.67
same,Carbon dioxide capacity,[1]; neat perfluorocarbon F44E,200 vol %
same,Oxygen capacity,[1]; neat perfluorocarbon F44E,50 vol %
same,Specific gravity,[1]; neat perfluorocarbon F44E,1.668 g/cc
same,Fitted mean PaO2,"[2]; FiO2 10%, O2 Off",25.7 mm Hg
same,Observed mean PaO2,"[2]; FiO2 10%, O2 Off",28.0 mm Hg
same,Fitted mean PaO2,"[2]; FiO2 10%, O2 On",35.2 mm Hg
same,Observed mean PaO2,"[2]; FiO2 10%, O2 On",36.7 mm Hg
same,Observed mean PaO2,"[2]; FiO2 10%, O2 On, listed as oxygenated perfluorocarbon",36.7±8.4 mm Hg
same,Fitted mean PaO2,"[2]; FiO2 12%, O2 Off",38.5 mm Hg
same,Observed mean PaO2,"[2]; FiO2 12%, O2 Off",37.1 mm Hg
same,Fitted mean PaO2,"[2]; FiO2 12%, O2 On",44.5 mm Hg
same,Observed mean PaO2,"[2]; FiO2 12%, O2 On",43.8 mm Hg
same,Fitted mean PaO2,"[2]; FiO2 14%, O2 Off",51.3 mm Hg
same,Observed mean PaO2,"[2]; FiO2 14%, O2 Off",48.8 mm Hg
same,Fitted mean PaO2,"[2]; FiO2 14%, O2 On",53.9 mm Hg
same,Observed mean PaO2,"[2]; FiO2 14%, O2 On",55.3 mm Hg
same,Observed mean PaO2,"[2]; FiO2 14%, O2 On, listed as oxygenated perfluorocarbon",55.3±7.6 mm Hg and 55.3 mm Hg
same,arterial oxygen saturation (SaO2),"[2]; FiO2 14%, oxygenated perfluorocarbon perfusion (73% with oxygenated saline)",89%
same,Fitted mean PaO2,"[2]; FiO2 16%, O2 Off",64.2 mm Hg
same,Observed mean PaO2,"[2]; FiO2 16%, O2 Off",63.7 mm Hg
same,Fitted mean PaO2,"[2]; FiO2 16%, O2 On",63.3 mm Hg
same,Observed mean PaO2,"[2]; FiO2 16%, O2 On",64.4 mm Hg
same,Fitted mean PaO2,"[2]; FiO2 18%, O2 Off",77.0 mm Hg
same,Observed mean PaO2,"[2]; FiO2 18%, O2 Off",79.8 mm Hg
same,Fitted mean PaO2,"[2]; FiO2 18%, O2 On",72.7 mm Hg
same,Observed mean PaO2,"[2]; FiO2 18%, O2 On",68.7 mm Hg
same,Observed mean PaO2,"[2]; FiO2 18%, O2 On, listed as oxygenated perfluorocarbon",68.7±10.4 mm Hg
same,group-by-oxygenation interaction effect,[2]; average across FiO2 values,about 6.4 mmHg
same,average mean PaO2 difference perfluorocarbon versus saline,"[2]; oxygenation off, across all FiO2 values",6.4 mmHg
same,Fitted treatment effect: mean PaO2 difference perfluorocarbon versus saline,[2]; FiO2 10%,9.6 mmHg
same,Observed treatment effect: mean PaO2 difference perfluorocarbon versus saline,[2]; FiO2 10%,8.1 mmHg
same,Fitted treatment effect: mean PaO2 difference perfluorocarbon versus saline,[2]; FiO2 12%,11.4 mmHg
same,Observed treatment effect: mean PaO2 difference perfluorocarbon versus saline,[2]; FiO2 12%,12.4 mmHg
same,Fitted treatment effect: mean PaO2 difference perfluorocarbon versus saline,[2]; FiO2 14%,13.2 mmHg
same,Observed treatment effect: mean PaO2 difference perfluorocarbon versus saline,[2]; FiO2 14%,15.9 mmHg
same,Fitted treatment effect: mean PaO2 difference perfluorocarbon versus saline,[2]; FiO2 16%,15.0 mmHg
same,Observed treatment effect: mean PaO2 difference perfluorocarbon versus saline,[2]; FiO2 16%,18.2 mmHg
same,Fitted treatment effect: mean PaO2 difference perfluorocarbon versus saline,[2]; FiO2 18%,16.8 mmHg
same,Observed treatment effect: mean PaO2 difference perfluorocarbon versus saline,[2]; FiO2 18%,8.2 mmHg
same,"arterial or venous partial pressure of carbon dioxide (PaCO2 or PvCO2), difference between groups","[2]; perfluorocarbon versus saline, irrespective of FiO2",No statistically significant difference
